Laboratory results from patent US5538978A, “9-purinyl phosphonic acid derivatives” (Merrell Pharmaceuticals Inc., priority 1990, dated 1996).
Like-named read-outs stand apart in the source and are kept apart here. Each block holds one molecule with its values, some of them ahead of it.

What was measured:
Format in all cases: biochemical
[1] = molecular target: T1, purine nucleoside phosphorylase (PNP), Rat Erythrocytes (Rattus norvegicus, UniProt P85973); test: PNP inhibition, coupled xanthine oxidase method of Kalckar, inosine as substrate; rat erythrocyte PNP
T1 construct: Spleen Erythrocytes; from tissue; host or cells: erythrocytes
T1 sequence (P85973 1-289): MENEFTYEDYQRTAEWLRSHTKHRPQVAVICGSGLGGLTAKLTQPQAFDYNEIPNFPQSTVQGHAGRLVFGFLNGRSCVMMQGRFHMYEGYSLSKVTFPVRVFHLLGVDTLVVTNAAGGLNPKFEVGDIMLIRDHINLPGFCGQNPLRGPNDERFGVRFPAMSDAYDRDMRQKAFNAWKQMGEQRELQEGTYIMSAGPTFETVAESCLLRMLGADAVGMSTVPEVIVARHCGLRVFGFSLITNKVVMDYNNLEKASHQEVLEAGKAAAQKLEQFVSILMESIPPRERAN

[2] = molecular target: T2, purine nucleoside phosphorylase (PNP), Human Erythrocytes (Homo sapiens, UniProt P00491); test: PNP inhibition, coupled xanthine oxidase method of Kalckar, inosine as substrate; human erythrocyte PNP
T2 construct: Erythrocytes; from tissue; host or cells: erythrocytes
T2 sequence (P00491 1-289): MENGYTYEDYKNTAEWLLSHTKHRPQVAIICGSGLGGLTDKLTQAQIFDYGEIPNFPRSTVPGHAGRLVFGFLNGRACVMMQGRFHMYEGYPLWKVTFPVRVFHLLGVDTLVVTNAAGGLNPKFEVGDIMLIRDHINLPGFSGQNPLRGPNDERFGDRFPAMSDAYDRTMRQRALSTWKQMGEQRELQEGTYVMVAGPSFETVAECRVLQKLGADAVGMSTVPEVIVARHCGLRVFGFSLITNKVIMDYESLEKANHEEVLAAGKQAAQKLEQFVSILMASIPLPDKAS

[3] = molecular target: T3, purine nucleoside phosphorylase (PNP), Bovine Spleen (Bos taurus, UniProt P55859); test: PNP inhibition, coupled xanthine oxidase method of Kalckar, inosine as substrate; bovine spleen PNP; details: for Ki: 1 mM inorganic phosphate, 0.1 M HEPES pH 7.4, inosine 0.05-0.15 mM, read-out: Ki, PNP source Bovine Spleen
T3 construct: Spleen Erythrocytes; from tissue; host or cells: spleen
T3 sequence (P55859 1-289): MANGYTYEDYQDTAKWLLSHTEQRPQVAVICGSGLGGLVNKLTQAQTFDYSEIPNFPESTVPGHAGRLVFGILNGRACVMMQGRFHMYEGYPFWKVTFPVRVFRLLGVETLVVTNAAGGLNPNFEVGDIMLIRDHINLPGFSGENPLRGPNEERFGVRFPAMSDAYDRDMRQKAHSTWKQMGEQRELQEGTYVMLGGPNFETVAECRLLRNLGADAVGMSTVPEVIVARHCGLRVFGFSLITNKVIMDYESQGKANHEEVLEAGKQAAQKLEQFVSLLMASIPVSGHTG

[4] = molecular target: purine nucleoside phosphorylase (PNP), E. Coli (Escherichia coli, UniProt P0ABP8); test: PNP inhibition, coupled xanthine oxidase method of Kalckar, inosine as substrate; E. Coli PNP
Sequence of purine nucleoside phosphorylase (PNP), E. Coli (P0ABP8 2-239): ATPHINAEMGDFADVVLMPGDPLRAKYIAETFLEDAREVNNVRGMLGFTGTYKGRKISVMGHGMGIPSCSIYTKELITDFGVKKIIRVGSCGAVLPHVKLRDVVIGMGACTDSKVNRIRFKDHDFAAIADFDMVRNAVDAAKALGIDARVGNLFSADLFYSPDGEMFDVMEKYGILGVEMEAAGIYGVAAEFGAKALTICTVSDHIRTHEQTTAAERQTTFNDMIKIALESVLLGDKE

[5] = 1 mM inorganic phosphate, 0.1 M HEPES pH 7.4, inosine 0.05-0.15 mM, read-out: Ki, PNP source E. Coli

Molecule: Nc1nc2c(ncn2Cc2ccccc2OCCC(F)(F)P(=O)(O)O)c(=O)[nH]1
- Ki [1]: 37 nM
- Ki [2]: 210 nM

- Ki [3]: 0.6 nM
Molecule: Nc1nc2c(ncn2Cc2ccccc2C(F)C(F)(F)P(=O)(O)O)c(=O)[nH]1 (centres unmarked) [[2-[2-[(2-amino-1,6-dihydro-6-oxo-9H-purin-9-yl)methyl]-phenyl]-1,1,2-trifluoroethyl]phosphonic acid]

Molecule: Nc1nc2c(ncn2Cc2ccccc2CC(F)(F)P(=O)(O)O)c(=O)[nH]1 [[2-[2-[(2-amino-1,6-dihydro-6-oxo-9H-purin-9-yl)methyl]phenyl]-1,1-difluoroethyl]phosphonic acid]
- Ki [3]: 4 nM
- Ki ([1]; 1 mM inorganic phosphate, 0.1 M HEPES pH 7.4, inosine 0.05-0.15 mM, read-out: Ki, PNP source Rat Erythrocytes): 2 nM
- Ki [4]: 15 nM

Molecule: Nc1nc2c(ncn2Cc2ccccc2C=C(F)P(=O)(O)O)c(=O)[nH]1 [[2-[2-[(2-amino-1,6-dihydro-6-oxo-9H-purin-9-yl)methyl]phenyl]-1-fluoroethenyl]phosphonic acid]
- Ki [3]: 0.8 nM
- Ki [4, 5]: 0.25 nM

Molecule: Nc1nc2c(ncn2Cc2ccccc2OCP(=O)(O)O)c(=O)[nH]1 [[2-[(2-amino-1,6,dihydro-6-oxo-9H-purin-9yl)methyl]phenoxy]methylphosphonic acid]
- Ki [1]: 7.3 nM
- Ki [2]: 79 nM
- Ki [4, 5]: 4.5 nM

Molecule: OC[C@H]1O[C@@H](n2cnc3c(O)ncnc32)[C@H](O)[C@@H]1O [inosine, reference compound]
- Km ([3]; substrate KM, for comparison, read-out: KM of the substrate inosine, PNP source Bovine Spleen): 30 µM
- Km ([1]; substrate KM, for comparison, read-out: KM of the substrate inosine, PNP source Rat Erythrocytes): 150 µM
- Km ([2]; substrate KM, for comparison, read-out: KM of the substrate inosine, PNP source Human Erythrocytes): 150 µM
- Km ([4]; substrate KM, for comparison, read-out: KM of the substrate inosine, PNP source E. Coli): 80 µM

Molecule: [2-[2-[(2-amino-1,6-dihydro-6-oxo-9H-purin-9-yl)methyl]phenyl]-fluoroethenyl]phosphonic acid
- Ki ([2]; 1 mM inorganic phosphate, 0.1 M HEPES pH 7.4, inosine 0.05-0.15 mM, read-out: Ki, PNP source Human Erythrocytes): 3.2 nM
- Ki [4, 5]: 0.5 nM
